The text below walks through data of US7429579B2, “Tetrahydrobenzazepine derivatives useful as modulators of dopamine D3 receptors (antipsychotic agents)” (SmithKline Beecham, PLC, priority 2000, dated 2008).

T1 sequence (P35462 whole entry): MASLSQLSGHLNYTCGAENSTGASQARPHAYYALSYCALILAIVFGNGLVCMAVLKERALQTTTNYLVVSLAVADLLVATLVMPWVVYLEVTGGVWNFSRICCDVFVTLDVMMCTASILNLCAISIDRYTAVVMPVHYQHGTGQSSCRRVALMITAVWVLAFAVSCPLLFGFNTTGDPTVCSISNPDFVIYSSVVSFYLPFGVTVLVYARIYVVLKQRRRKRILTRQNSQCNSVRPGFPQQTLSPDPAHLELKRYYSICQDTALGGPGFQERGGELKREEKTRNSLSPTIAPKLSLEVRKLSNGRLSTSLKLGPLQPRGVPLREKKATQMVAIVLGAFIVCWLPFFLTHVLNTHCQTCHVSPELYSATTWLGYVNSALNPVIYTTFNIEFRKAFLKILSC

This experiment has as its target T1, dopamine D3 receptor (Homo sapiens, UniProt P35462).
T1 construct: expressed in transfected cells; host or cells: CHO cells (crude cell membranes)
In words: Binding experiments on cloned dopamine receptors: displacement of [125I]-Iodosulpride. Particulars: cloned human D3 receptor expressed in CHO cells, [125I]-Iodosulpride displacement; pKi accurate to about ±0.2-0.3. How it is done:
Binding Experiments on Cloned Dopamine (e.g. D2, D3 and D4) Receptors
Cultures were grown as monolayers or in suspension in standard cell culture media. Cells were recovered by scraping (from monolayers) or by centrifugation (from suspension cultures), and were washed two or three times by suspension in phosphate buffered saline followed by collection by centrifugation. Cell pellets were stored frozen at −80° C. Crude cell membranes were prepared by homogenisation followed by high-speed centrifugation, and characterisation of cloned receptors achieved by radioligand binding.
Preparation of Cho Cell Membranes: Cell Pellets were Gently Thawed at Room temperature, and resuspended in about 20 volumes of ice-cold Extraction buffer; 5 mM EDTA, 50 mM Trizma pre-set crystals (pH7.4@37° C.), 1 mM MgCl2, 5 mM KCl and 120 mM NaCl. The suspension was homogenised using an Ultra-Turrax at full speed for 15 seconds. The homogenate was centrifuged at 18,000 r.p.m for 15 min at 4° C. in a Sorvall RC5C centrifuge. Supernatant was discarded, and homogenate re-suspended in extraction buffer then centrifugation was repeated. The final pellet was resuspended in 50 mM Trizma pre-set crystals (pH 7.4 @ 37° C.) and stored in 1 ml aliquot tubes at −80° C. (D2=3.0E+08 cells, D3=7.0E+07 cells and D4=1.0E+08 cells).
The total volume is 0.2 ml and incubated in a water bath at 37° C. for 40 minutes. Following incubation, samples were filtered onto GF/B Unifilters using a Can berra Packard Filtermate, and washed four times with ice-cold 50 mM Trizma pre-set crystals (pH 7.4 @ 37° C.). The radioactivity on the filters was measured using a Canberra Packard Topcount Scintillation counter. […] For competition curves, 10 serial log concentrations of competing cold drug were used (Dilution range: 10 μM-10 pM). Competition curves were analysed using Inflexion, an iterative curve fitting programme in Excel. Results were expressed as pKi values where pKi=−log 10 [Ki].
Background: Loss of bound radioactivity is the signal in a displacement assay; it reports binding, not function.
What is called Ki is a dissociation constant, usually derived from enzyme kinetics or from competition with a known ligand. Higher therefore signals a looser hold on the target. Consider `CCS(=O)(=O)c1ccc2c(c1)CCN(CCCSc1nnc(-c3cc4ccccc4n3C)n1C)CC2` [Example 99, 7-(ethylsulfonyl)-3-(3-{[4-methyl-5-(1-methyl-1H-indol-2-yl)-4H-1,2,4-triazol-3-yl]thio}propyl)-2,3,4,5-tetrahydro-1H-3-benzazepine], for which the inhibitory constant (Ki) was 0.316 to 10 nM. As for `CCS(=O)(=O)c1ccc2c(c1)CCN(CCCSc1nnc(-c3cc4ccccc4[nH]3)n1C)CC2` [Example 93, 7-(ethylsulfonyl)-3-(3-{[5-(1H-indol-2-yl)-4-methyl-4H-1,2,4-triazol-3-yl]thio}propyl)-2,3,4,5-tetrahydro-1H-3-benzazepine], the Ki is 0.316 to 10 nM. `Cn1c(SCCCN2CCc3ccc(S(C)(=O)=O)cc3CC2)nnc1-c1ccc2c(ccn2C)c1` [Example 74, 3-(3-{[4-methyl-5-(1-methyl-1H-indol-5-yl)-4H-1,2,4-triazol-3-yl]thio}propyl)-7-(methylsulfonyl)-2,3,4,5-tetrahydro-1H-3-benzazepine] had an inhibition constant (Ki) of 0.316 to 10 nM.
